ChEMBL document CHEMBL6096661, “Synthesis, biological evaluation and mechanism study of a novel indole-pyridine chalcone derivative as antiproliferative agent against tumor cells through dual targeting tubulin and HK2” (Eur J Med Chem, 2025)
Active and inactive are the calls of the source. No cut-off for these calls is given here.

How the values were obtained:
[1] = test system: ASPC1; test: Antiproliferative activity against human ASPC1 cells assessed as inhibition of cell growth incubated for 48 hrs by CCK-8 assay; format: functional, cell-based; details: ASPC1, 48 h
[2] = Selectivity ratio of IC50 for cytotoxicity against green monkey Vero cells to IC50 for antiproliferative activity against human LoVo cells; format: toxicity, cell-based; details: Vero cells versus LoVo cells, read-out: Ratio IC50
[3] = test system: MDA-MB-231; test: Induction of apoptosis in human MDA-MB-231 cells assessed as fragmented bright nuclei at 0.5 to 2 uM incubated for 24 hrs by Hoechst 33342 staining based fluorescence microscopic analysis; format: functional, cell-based; details: dose 0.5-2 µM
[4] = test system: MDA-MB-231; test: Induction of morphological changes in human MDA-MB-231 assessed as cell contraction at 0.5 to 2 uM incubated for 48 hrs by microscopic analysis; format: functional, cell-based; details: dose 0.5-2 µM
[5] = test system: SW1990; test: Antiproliferative activity against human SW1990 cells assessed as inhibition of cell growth incubated for 48 hrs by CCK-8 assay; format: functional, cell-based; details: SW1990, 48 h
[6] = molecular target: Tubulin (Homo sapiens) (UniProt P68371+Q9H4B7+P0DPH7+P68366+Q13509+Q71U36+P04350+Q3ZCM7+P07437+P68363+Q9BQE3+Q6PEY2+Q13885+Q9BVA1+Q9BUF5); test: Disruption of microtubule network in human MDA-MB-231 cells assessed as point-like fiber structure at 1 to 2 uM incubated for 24 hrs by DAPI staining based fluorescence microscopic analysis; format: cell-based; details: dose 1-2 µM
[7] = test system: HCT-116; test: Antiproliferative activity against human HCT-116 cells assessed as inhibition of cell proliferation incubated for 3 days by CCK-8 assay; format: functional, cell-based; details: HCT-116, 72 h
[8] = test system: MDA-MB-231; test: Antiproliferative activity against human MDA-MB-231 cells assessed as inhibition of cell proliferation incubated for 4 days by CCK-8 assay; format: functional, cell-based; details: MDA-MB-231, 96 h
[9] = molecular target: T1, Hexokinase-2 (Homo sapiens) (UniProt P52789); test: Mixed inhibition of human HK2 transfected in Escherichia coli BL21 (DE) assessed as increase in Km with decrease in Vmax at 0.25 to 4 uM using glucose as substrate by Lineweaver-Burk plot analysis; details: dose 0.25-4 µM
T1 sequence (whole entry): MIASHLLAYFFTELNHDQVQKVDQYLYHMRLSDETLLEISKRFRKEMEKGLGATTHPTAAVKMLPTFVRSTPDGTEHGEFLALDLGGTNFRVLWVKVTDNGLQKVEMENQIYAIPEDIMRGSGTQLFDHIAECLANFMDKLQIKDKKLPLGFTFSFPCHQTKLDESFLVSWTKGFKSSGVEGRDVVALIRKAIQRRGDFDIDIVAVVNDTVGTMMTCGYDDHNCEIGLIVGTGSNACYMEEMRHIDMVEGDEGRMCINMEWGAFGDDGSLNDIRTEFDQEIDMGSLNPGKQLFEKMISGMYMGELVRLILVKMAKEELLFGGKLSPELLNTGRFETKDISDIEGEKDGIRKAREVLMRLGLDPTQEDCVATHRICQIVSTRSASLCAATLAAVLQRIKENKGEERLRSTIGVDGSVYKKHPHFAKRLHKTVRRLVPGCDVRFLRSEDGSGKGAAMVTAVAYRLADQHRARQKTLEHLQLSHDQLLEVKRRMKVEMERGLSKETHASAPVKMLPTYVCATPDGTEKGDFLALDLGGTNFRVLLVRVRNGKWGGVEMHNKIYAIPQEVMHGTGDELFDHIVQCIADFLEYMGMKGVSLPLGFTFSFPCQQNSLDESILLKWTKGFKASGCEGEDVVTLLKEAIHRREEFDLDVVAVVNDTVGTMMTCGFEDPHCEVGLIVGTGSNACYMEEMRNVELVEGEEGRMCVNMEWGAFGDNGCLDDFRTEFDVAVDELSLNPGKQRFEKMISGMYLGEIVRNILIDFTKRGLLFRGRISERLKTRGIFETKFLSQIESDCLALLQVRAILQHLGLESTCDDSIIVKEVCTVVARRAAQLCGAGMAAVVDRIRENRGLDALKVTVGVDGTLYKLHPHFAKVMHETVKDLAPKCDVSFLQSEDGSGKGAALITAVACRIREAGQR

[10] = Cytotoxicity against green monkey Vero cells assessed as inhibition of cell growth incubated for 48 hrs by CCK-8 assay; format: toxicity, cell-based; details: African green monkey (Chlorocebus sabaeus)
[11] = test system: LoVo; test: Antiproliferative activity against human LoVo cells assessed as inhibition of cell growth incubated for 48 hrs by CCK-8 assay; format: functional, cell-based
[12] = test system: SW480; test: Antiproliferative activity against human SW480 cells assessed as inhibition of cell growth incubated for 48 hrs by CCK-8 assay; format: functional, cell-based; details: SW480, 48 h
[13] = test system: MDA-MB-231; test: Induction of morphological changes in human MDA-MB-231 assessed as loss of adhesion properties at 0.5 to 2 uM incubated for 48 hrs by microscopic analysis; format: functional, cell-based; details: dose 0.5-2 µM
[14] = test system: MDA-MB-231; test: Induction of apoptosis in human MDA-MB-231 cells assessed as nuclear shrinkage at 0.5 to 2 uM incubated for 24 hrs by Hoechst 33342 staining based fluorescence microscopic analysis; format: functional, cell-based; details: dose 0.5-2 µM
[15] = test system: HCT-116; test: Antiproliferative activity against human HCT-116 cells assessed as inhibition of cell proliferation incubated for 1 day by CCK-8 assay; format: functional, cell-based; details: HCT-116, 24 h
[16] = test system: BXPC-3; test: Antiproliferative activity against human BXPC-3 cells assessed as inhibition of cell growth incubated for 48 hrs by CCK-8 assay; format: functional, cell-based; details: BXPC-3, 48 h
[17] = test system: MDA-MB-231; test: Induction of ROS generation in human MDA-MB-231 cells assessed as increase in green fluorescence at 0.5 uM incubated for 24 hrs by DCFH-DA staining based flow cytometric analysis (reference value: 62.3 %); format: functional
[18] = test system: MDA-MB-231; test: Induction of apoptosis in human MDA-MB-231 cells assessed as decrease in Cyclin A level by Western blotting analysis; format: functional, cell-based; details: dose 0.5-2 µM
[19] = test system: MDA-MB-231; test: Induction of cell cycle arrest in human MDA-MB-231 cells assessed as decreased proportion of cells at G1 phase at 0.5 to 2 uM by flow cytometric analysis; format: functional, cell-based; details: dose 0.5-2 µM
[20] = molecular target: T2, Hexokinase-2 (Homo sapiens, UniProt P52789); test: Inhibition of human HK2 transfected in Escherichia coli BL21 (DE) incubated for 10 mins
T2 sequence (P52789 whole entry): T1 sequence (whole entry)

[21] = test system: MDA-MB-231; test: Induction of morphological changes in human MDA-MB-231 assessed as cell rounding at 0.5 to 2 uM incubated for 48 hrs by microscopic analysis; format: functional, cell-based; details: dose 0.5-2 µM
[22] = test system: MDA-MB-231; test: Antiproliferative activity against human MDA-MB-231 cells assessed as reduction in cell proliferation incubated for 48 hrs by CCK-8 assay; format: functional, cell-based; details: MDA-MB-231, 48 h
[23] = molecular target: T1, Hexokinase-2 (Homo sapiens); test: Binding affinity to human HK2 transfected in Escherichia coli BL21 (DE) assessed as HK2 stabilization at 4 uM at 37 to 55 degreeC incubated for 10 to 30 mins by CETSA; details: time 10-30 min
[24] = test system: MDA-MB-231; test: Induction of apoptosis in human MDA-MB-231 cells assessed as increase in total apoptotic cells by annexin-V/PI double staining based flow cytometric analysis; format: functional, cell-based; details: dose 0.5-2 µM
[25] = test system: MDA-MB-231; test: Induction of ROS generation in human MDA-MB-231 cells assessed as increase in green fluorescence at 2 uM incubated for 24 hrs by DCFH-DA staining based flow cytometric analysis (reference value: 62.3 %); format: functional

IC50 [1]: 1110 nM
IC50 [5]: 927 nM
Activity [6]: Active
IC50 [7]: 393 nM
IC50 [8]: 938 nM
inhibition [9]: Active
IC50 [11]: 446 nM
IC50 [12]: 687 nM
IC50 [15]: 1930 nM
IC50 [16]: 1270 nM
IC50 [20]: 1560 nM
IC50 [22]: 707 nM
Activity [23]: Active
SMILES: O=C(/C=C/c1cn(S(=O)(=O)c2ccc([N+](=O)[O-])cc2)c2ccc(N3CCOCC3)cc12)c1cccnc1
selectivity ratio [2]: 5
Activity [3]: Active
Activity [4]: Active
IC50 at 48 h [10]: 2320 nM
Activity [13]: Active
Activity [14]: Active
Activity [17]: 88.4%
Activity [18]: Dose-dependent-effect
Activity [19]: Active
Activity [21]: Active
Activity [24]: Dose-dependent-effect
Activity [25]: 92.8%
